Columns and labels:
Carboplatin = compound: C1CC(C1)(C(=O)[O-])C(=O)[O-].N.N.[Pt+2] [Carboplatin]; settings: max 10 µM
Outline: (§1)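 Cancer cell lines were seeded in 1536-well plates in 7.5 μl DMEM/F12 or RPMI with 10% FBS, held 24 hours at 37°C and 5% CO2, then dosed for 72 hours (final DMSO typically 0.2%). Viability was read by CellTiter-Glo 2.0 luminescence and scaled between blank-well and DMSO-well means. The single-agent IC50 comes from dose responses fitted to a two-parameter logistic curve with a non-linear mixed effects model.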

AZD5363 = compound: C1CN(CCC1(C(=O)N[C@@H](CCO)C2=CC=C(C=C2)Cl)N)C3=NC=NC4=C3C=CN4 [AZD5363]; settings: max 10 µM
Outline: as §1

AZD1775 = compound: C=CCn1c(=O)c2cnc(Nc3ccc(N4CCN(C)CC4)cc3)nc2n1-c1cccc(C(C)(C)O)n1 [AZD1775]; settings: max 3 µM
Outline: as §1

Trametinib = compound: CC(=O)Nc1cccc(-n2c(=O)n(C3CC3)c(=O)c3c(Nc4ccc(I)cc4F)n(C)c(=O)c(C)c32)c1 [Trametinib]; settings: max 1 µM
Outline: as §1

Paclitaxel = compound: CC(=O)O[C@H]1C(=O)[C@@]2(C)[C@H]([C@H](OC(=O)c3ccccc3)[C@]3(O)C[C@H](OC(=O)[C@H](O)[C@@H](NC(=O)c4ccccc4)c4ccccc4)C(C)=C1C3(C)C)[C@]1(OC(C)=O)CO[C@@H]1C[C@@H]2O [Paclitaxel]; settings: max 3 µM
Outline: as §1

Palbociclib = compound: CC(=O)c1c(C)c2cnc(Nc3ccc(N4CCNCC4)cn3)nc2n(C2CCCC2)c1=O [Palbociclib]; settings: max 10 µM
Outline: as §1

AZD1390 = compound: CC(C)n1c(=O)n(C)c2cnc3cc(F)c(-c4ccc(OCCCN5CCCCC5)nc4)cc3c21 [AZD1390]; settings: max 0.3 µM
Outline: as §1

Venetoclax = compound: CC1(C)CCC(CN2CCN(c3ccc(C(=O)NS(=O)(=O)c4ccc(NCC5CCOCC5)c([N+](=O)[O-])c4)c(Oc4cnc5[nH]ccc5c4)c3)CC2)=C(c2ccc(Cl)cc2)C1 [Venetoclax]; settings: max 1 µM
Outline: as §1

Dasatinib = compound: CC1=C(C(=CC=C1)Cl)NC(=O)C2=CN=C(S2)NC3=CC(=NC(=N3)C)N4CCN(CC4)CCO [Dasatinib]; settings: max 2 µM
Outline: as §1

SG3199 = compound: CC1=CN2[C@@H](C1)C=NC3=CC(=C(C=C3C2=O)OC)OCCCCCOC4=C(C=C5C(=C4)N=C[C@@H]6CC(=CN6C5=O)C)OC [SG3199]; settings: max 0.001 µM
Outline: as §1

AZD2811 = compound: CCN(CCO)CCCOc1ccc2c(Nc3cc(CC(=O)Nc4cccc(F)c4)[nH]n3)ncnc2c1 [AZD2811]; settings: max 1 µM
Outline: as §1

SN-38 = compound: CCc1c2c(nc3ccc(O)cc13)-c1cc3c(c(=O)n1C2)COC(=O)[C@]3(O)CC [SN-38]; settings: max 0.3 µM
Outline: as §1

AZD0156 = compound: CN(C)CCCOc1ccc(-c2ccc3ncc4c(c3c2)n(C2CCOCC2)c(=O)n4C)cn1 [AZD0156]; settings: max 3 µM
Outline: as §1

AZD4320 = compound: CN(CC[C@H](CSC1=CC=CC=C1)NC2=C(C=C(C=C2)S(=O)(=O)NC(=O)C3=CC=C(C=C3)N4CCC(CC4)[C@H](C5=CC=CC=C5C6=CC=C(C=C6)Cl)O)S(=O)(=O)C(F)(F)F)CCO [AZD4320]; settings: max 1 µM
Outline: as §1

Alisertib = compound: COc1cc(Nc2ncc3c(n2)-c2ccc(Cl)cc2C(c2c(F)cccc2OC)=NC3)ccc1C(=O)O [Alisertib]; settings: max 10 µM
Outline: as §1

Etoposide = compound: COc1cc([C@@H]2c3cc4c(cc3[C@@H](O[C@@H]3O[C@@H]5CO[C@@H](C)O[C@H]5[C@H](O)[C@H]3O)[C@H]3COC(=O)[C@H]23)OCO4)cc(OC)c1O [Etoposide]; settings: max 10 µM
Outline: as §1

Gefitinib = compound: COc1cc2ncnc(Nc3ccc(F)c(Cl)c3)c2cc1OCCCN1CCOCC1 [Gefitinib]; settings: max 10 µM
Outline: as §1

Prexasertib = compound: COc1cccc(OCCCN)c1-c1cc(Nc2cnc(C#N)cn2)n[nH]1 [Prexasertib]; settings: max 1 µM
Outline: as §1

Doxorubicin = compound: COc1cccc2c1C(=O)c1c(O)c3c(c(O)c1C2=O)C[C@@](O)(C(=O)CO)C[C@@H]3O[C@H]1C[C@H](N)[C@H](O)[C@H](C)O1 [Doxorubicin]; settings: max 1 µM
Outline: as §1

AZD5153 = compound: COc1nnc2ccc(N3CCC(c4ccc(OCCN5CCN(C)C(=O)[C@H]5C)cc4)CC3)nn12 [AZD5153]; settings: max 1 µM
Outline: as §1

Lapatinib = compound: CS(=O)(=O)CCNCc1ccc(-c2ccc3ncnc(Nc4ccc(OCc5cccc(F)c5)c(Cl)c4)c3c2)o1 [Lapatinib]; settings: max 10 µM
Outline: as §1

AZD8186 = compound: C[C@@H](Nc1cc(F)cc(F)c1)c1cc(C(=O)N(C)C)cc2c(=O)cc(N3CCOCC3)oc12 [AZD8186]; settings: max 10 µM
Outline: as §1

Crizotinib = compound: C[C@@H](Oc1cc(-c2cnn(C3CCNCC3)c2)cnc1N)c1c(Cl)ccc(F)c1Cl [Crizotinib]; settings: max 10 µM
Outline: as §1

Savolitinib = compound: C[C@@H](c1ccc2nccn2c1)n1nnc2ncc(-c3cnn(C)c3)nc21 [Savolitinib]; settings: max 1 µM
Outline: as §1

AZD6738 = compound: C[C@@H]1COCCN1C2=NC(=NC(=C2)C3(CC3)[S@](=N)(=O)C)C4=C5C=CNC5=NC=C4 [AZD6738]; settings: max 10 µM
Outline: as §1

AZD5991 = compound: Cc1c2c(nn1C)CSCc1cc(n(C)n1)CSc1cc(c3ccccc3c1)OCCCc1c(C(=O)O)n(C)c3c-2c(Cl)ccc13 [AZD5991]; settings: max 1 µM
Outline: as §1

AZD7648 = compound: Cc1cc2ncnn2cc1Nc1ncc2c(n1)n(C1CCOCC1)c(=O)n2C [AZD7648]; settings: max 10 µM
Outline: as §1

Taselisib = compound: Cc1nc(-c2cn3c(n2)-c2ccc(-c4cnn(C(C)(C)C(N)=O)c4)cc2OCC3)n(C(C)C)n1 [Taselisib]; settings: max 10 µM
Outline: as §1

Selumetinib = compound: Cn1cnc2c(F)c(Nc3ccc(Br)cc3Cl)c(C(=O)NOCCO)cc21 [Selumetinib]; settings: max 10 µM
Outline: as §1

SRA737 = compound: N#Cc1cnc(Nc2cc(NC[C@H]3CNCCO3)c(C(F)(F)F)cn2)cn1 [SRA737]; settings: max 10 µM
Outline: as §1

MK-2206 = compound: NC1(c2ccc(-c3nc4ccn5c(=O)[nH]nc5c4cc3-c3ccccc3)cc2)CCC1 [MK-2206]; settings: max 10 µM
Outline: as §1

Gemcitabine = compound: Nc1ccn([C@@H]2O[C@H](CO)[C@@H](O)C2(F)F)c(=O)n1 [Gemcitabine]; settings: max 0.3 µM
Outline: as §1

[1] = compound: O=C(Nc1ccc2[nH]nc(-c3ccncc3)c2c1)[C@@H]1CCN(CC(=O)N2CCN(c3ccc(-c4ncccn4)cc3)CC2)C1; settings: max 5 µM
Outline: as §1

Olaparib = compound: O=C(c1cc(Cc2n[nH]c(=O)c3ccccc23)ccc1F)N1CCN(C(=O)C2CC2)CC1 [Olaparib]; settings: max 10 µM
Outline: as §1

5-Fluorouracil = compound: O=c1[nH]cc(F)c(=O)[nH]1 [5-Fluorouracil]; settings: max 20 µM
Outline: as §1

| Cell Line | IC50, cell viability 72 h (Carboplatin) [nM] | IC50, cell viability 72 h (AZD5363) [nM] | IC50, cell viability 72 h (AZD1775) [nM] | IC50, cell viability 72 h (Trametinib) [nM] | IC50, cell viability 72 h (Paclitaxel) [nM] | IC50, cell viability 72 h (Palbociclib) [nM] | IC50, cell viability 72 h (AZD1390) [nM] | IC50, cell viability 72 h (Venetoclax) [nM] | IC50, cell viability 72 h (Dasatinib) [nM] | IC50, cell viability 72 h (SG3199) [nM] | IC50, cell viability 72 h (AZD2811) [nM] | IC50, cell viability 72 h (SN-38) [nM] | IC50, cell viability 72 h (AZD0156) [nM] | IC50, cell viability 72 h (AZD4320) [nM] | IC50, cell viability 72 h (Alisertib) [nM] | IC50, cell viability 72 h (Etoposide) [nM] | IC50, cell viability 72 h (Gefitinib) [nM] | IC50, cell viability 72 h (Prexasertib) [nM] | IC50, cell viability 72 h (Doxorubicin) [nM] | IC50, cell viability 72 h (AZD5153) [nM] | IC50, cell viability 72 h (Lapatinib) [nM] | IC50, cell viability 72 h (AZD8186) [nM] | IC50, cell viability 72 h (Crizotinib) [nM] | IC50, cell viability 72 h (Savolitinib) [nM] | IC50, cell viability 72 h (AZD6738) [nM] | IC50, cell viability 72 h (AZD5991) [nM] | IC50, cell viability 72 h (AZD7648) [nM] | IC50, cell viability 72 h (Taselisib) [nM] | IC50, cell viability 72 h (Selumetinib) [nM] | IC50, cell viability 72 h (SRA737) [nM] | IC50, cell viability 72 h (MK-2206) [nM] | IC50, cell viability 72 h (Gemcitabine) [nM] | IC50, cell viability 72 h [1] [nM] | IC50, cell viability 72 h (Olaparib) [nM] | IC50, cell viability 72 h (5-Fluorouracil) [nM] |
| --- | --- | --- | --- | --- | --- | --- | --- | --- | --- | --- | --- | --- | --- | --- | --- | --- | --- | --- | --- | --- | --- | --- | --- | --- | --- | --- | --- | --- | --- | --- | --- | --- | --- | --- | --- |
| CGTH-W-1 (Thyroid Gland Carcinoma) | > 10000 | > 10000 | > 3000 | > 1000 | 2590 | > 10000 | > 300 | > 1000 | 544 | > 1 | > 1000 | 30.8 | > 3000 | > 1000 | > 10000 | > 10000 | > 10000 | 129 | 934 | > 1000 | > 10000 | > 10000 | > 10000 | > 1000 | > 10000 | > 1000 | > 10000 | 9160 | > 10000 | > 10000 | > 10000 | 119 | > 5000 | > 10000 | > 20000 |
| EB2 (Burkitt's Lymphoma) | > 10000 | 3270 | 348 | > 1000 | 30.1 | > 10000 | > 300 | > 1000 | 494 | > 1 | > 1000 | 4.03 | > 3000 | > 1000 | 7230 | 198 | > 10000 | 7.8 | 29.7 | 348 | > 10000 | 4920 | 6780 | > 1000 | 1630 | > 1000 | > 10000 | 2020 | > 10000 | 1030 | 3040 | 13.8 | > 5000 | > 10000 | > 20000 |
| EW-7 (Ewing's Sarcoma) | > 10000 | 4500 | 308 | > 1000 | 40.8 | > 10000 | > 300 | > 1000 | > 2000 | > 1 | > 1000 | 5.52 | > 3000 | 943 | 2150 | 253 | > 10000 | 5.28 | 101 | > 1000 | > 10000 | > 10000 | 3460 | > 1000 | 1160 | > 1000 | 9440 | 155 | > 10000 | 908 | 5630 | 4.7 | > 5000 | > 10000 | > 20000 |
| HCC70 (Breast Carcinoma) | > 10000 | 2000 | 1000 | > 1000 | 143 | > 10000 | > 300 | > 1000 | > 2000 | > 1 | 224 | > 300 | > 3000 | > 1000 | > 10000 | > 10000 | > 10000 | 29.7 | > 1000 | > 1000 | > 10000 | 2020 | > 10000 | > 1000 | 3000 | 201 | > 10000 | 4260 | > 10000 | 5460 | 1920 | > 300 | > 5000 | > 10000 | > 20000 |
| HCC1395 (Breast Carcinoma) | > 10000 | > 10000 | 965 | > 1000 | 206 | > 10000 | > 300 | > 1000 | > 2000 | > 1 | > 1000 | 173 | > 3000 | > 1000 | > 10000 | > 10000 | > 10000 | 9.08 | > 1000 | > 1000 | > 10000 | > 10000 | > 10000 | > 1000 | 2790 | > 1000 | > 10000 | > 10000 | > 10000 | 2950 | > 10000 | > 300 | > 5000 | > 10000 | > 20000 |
